Earlier results as cited in US12377214B2 (priority 2016, dated 2025).

Tested on: BIS index
Details: in vivo

## CC(C)c1cccc(C(C)C)c1O [propofol]
  Cp50 (interaction model parameter, effect site concentration of propofol): 4.47
